Laboratory results from ChEMBL document CHEMBL4190351, “Synthesis and biological evaluation of novel 6,11-dihydro-5H-benzo[e]pyrimido- [5,4-b][1,4]diazepine derivatives as potential c-Met inhibitors” (Eur J Med Chem, 2017).

Legend:
[1] = molecular target: Hepatocyte growth factor receptor (Homo sapiens, UniProt P08581); test: Inhibition of cMet (unknown origin) using poly(Glu, Tyr)4:1 substrate and ATP incubated fro 60 mins by ELISA
[2] = tested on: PC-3; test: Cytotoxicity in human PC3 cells incubated for 72 hrs by sulforhodamine B assay; conditions: PC-3, 72 h
[3] = tested on: CAKI-1; test: Cytotoxicity in human Caki1 cells incubated for 72 hrs by sulforhodamine B assay; conditions: CAKI-1, 72 h
[4] = tested on: HepG2; test: Cytotoxicity in human HepG2 cells incubated for 72 hrs by sulforhodamine B assay; conditions: HepG2, 72 h
[5] = tested on: PANC-1; test: Cytotoxicity in human PANC1 cells incubated for 72 hrs by sulforhodamine B assay; conditions: PANC-1, 72 h
[6] = Apparent volume of distribution during terminal phase in Sprague-Dawley rat at 20 mg/kg, po measured after 5 mins to 4 hrs post dose by LC-MS/MS method; assay type: ADME, organism-based; conditions: in vivo, read-out: Vz/F
[7] = Toxicity in KM mouse assessed as mouse survival at 720 mg/kg, po administered as single dose measured daily for 14 days (reference value: 100%); assay type: organism-based; conditions: in vivo
[8] = Toxicity in KM mouse assessed as mouse survival at 820 mg/kg, po administered as single dose measured daily for 14 days (reference value: 100%); assay type: organism-based; conditions: in vivo
[9] = molecular target: T1, Receptor-type tyrosine-protein kinase FLT3 (Homo sapiens, UniProt P36888); test: Inhibition of FLT3 (unknown origin)
T1 sequence (P36888 whole entry): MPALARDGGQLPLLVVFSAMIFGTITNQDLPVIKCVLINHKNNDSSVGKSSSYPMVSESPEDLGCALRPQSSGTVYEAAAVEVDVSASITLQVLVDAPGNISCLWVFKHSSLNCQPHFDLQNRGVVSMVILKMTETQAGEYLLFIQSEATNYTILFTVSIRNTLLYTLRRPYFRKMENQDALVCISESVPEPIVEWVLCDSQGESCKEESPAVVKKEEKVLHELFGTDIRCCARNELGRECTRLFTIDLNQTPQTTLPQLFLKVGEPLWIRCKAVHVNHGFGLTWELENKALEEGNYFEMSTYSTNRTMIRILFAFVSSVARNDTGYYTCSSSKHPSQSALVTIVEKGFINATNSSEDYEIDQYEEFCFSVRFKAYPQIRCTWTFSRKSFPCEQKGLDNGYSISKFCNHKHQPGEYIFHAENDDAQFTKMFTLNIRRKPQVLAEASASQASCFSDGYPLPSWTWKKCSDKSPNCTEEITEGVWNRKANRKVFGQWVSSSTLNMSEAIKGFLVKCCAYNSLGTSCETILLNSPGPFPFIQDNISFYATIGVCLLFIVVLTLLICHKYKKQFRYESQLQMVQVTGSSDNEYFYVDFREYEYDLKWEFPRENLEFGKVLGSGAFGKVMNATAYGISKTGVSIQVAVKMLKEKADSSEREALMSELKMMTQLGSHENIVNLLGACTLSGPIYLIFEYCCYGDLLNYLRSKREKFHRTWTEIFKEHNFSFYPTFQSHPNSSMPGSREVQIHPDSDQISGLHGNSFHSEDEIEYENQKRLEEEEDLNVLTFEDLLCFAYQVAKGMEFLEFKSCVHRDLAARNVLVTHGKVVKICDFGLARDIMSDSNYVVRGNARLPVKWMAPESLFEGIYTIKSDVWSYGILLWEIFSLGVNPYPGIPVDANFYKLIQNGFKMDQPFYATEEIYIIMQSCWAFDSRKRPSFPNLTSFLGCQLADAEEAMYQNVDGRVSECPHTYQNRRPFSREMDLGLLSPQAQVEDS

[10] = tested on: Mus musculus; test: Toxicity in KM mouse assessed as mouse mortality at 620 mg/kg, po administered as single dose measured daily for 14 days; assay type: organism-based; conditions: in vivo, 336 h
[11] = tested on: CAKI-1; test: Antitumor activity in human Caki1 cells xenografted in nude mouse assessed as inhibition of tumor growth at 20 mg/kg, ig qd for 21 days; assay type: functional; conditions: CAKI-1, po, 504 h, read-out: TGI
[12] = Elimination half life in Sprague-Dawley rat at 4 mg/kg, iv measured after 5 mins to 4 hrs post dose by LC-MS/MS method; assay type: ADME, organism-based; conditions: in vivo, read-out: beta t1/2 (converted)
[13] = Apparent clearance during terminal phase in Sprague-Dawley rat at 20 mg/kg, po measured after 5 mins to 4 hrs post dose by LC-MS/MS method; assay type: ADME, organism-based; conditions: in vivo, read-out: CLz/F (converted)
[14] = tested on: CAKI-1; test: Antitumor activity in human Caki1 cells xenografted in nude mouse assessed as inhibition of tumor growth at 80 mg/kg, ig qd for 21 days; assay type: functional; conditions: CAKI-1, po, 504 h, read-out: TGI
[15] = Cmax in Sprague-Dawley rat at 20 mg/kg, po measured after 5 mins to 4 hrs post dose by LC-MS/MS method; assay type: ADME, organism-based; set-up: dose 20 mg/kg, route oral; conditions: in vivo
[16] = tested on: Mus musculus; test: Toxicity in KM mouse assessed as mouse mortality at 520 mg/kg, po administered as single dose measured daily for 14 days; assay type: organism-based; conditions: in vivo, 336 h
[17] = tested on: Rattus norvegicus; test: Apparent clearance during terminal phase in Sprague-Dawley rat at 4 mg/kg, iv measured after 5 mins to 4 hrs post dose by LC-MS/MS method; assay type: ADME, organism-based; conditions: in vivo
[18] = molecular target: Vascular endothelial growth factor receptor 2 (Homo sapiens, UniProt P35968); test: Inhibition of VEGFR2 (unknown origin)
[19] = molecular target: Voltage-gated inwardly rectifying potassium channel KCNH2 (Homo sapiens, UniProt Q12809); test: Inhibition of human ERG at holding potential of -80 mV by cell based automated Qpatch method
[20] = AUC (0 to infinity) in Sprague-Dawley rat at 20 mg/kg, po measured after 5 mins to 4 hrs post dose by LC-MS/MS method; assay type: ADME, organism-based; set-up: dose 20 mg/kg, time infinity, route oral; conditions: in vivo
[21] = MRT (0 to t) in Sprague-Dawley rat at 20 mg/kg, po measured after 5 mins to 4 hrs post dose by LC-MS/MS method; assay type: ADME, organism-based; conditions: in vivo
[22] = AUC (0 to t) in Sprague-Dawley rat at 4 mg/kg, iv measured after 5 mins to 4 hrs post dose by LC-MS/MS method; assay type: ADME, organism-based; set-up: time 0.083-4 hr, dose 4 mg/kg, route intravenous; conditions: in vivo
[23] = molecular target: Proto-oncogene tyrosine-protein kinase receptor Ret (Homo sapiens, UniProt P07949); test: Inhibition of RET (unknown origin)
[24] = Toxicity in KM mouse assessed as mouse survival at 920 mg/kg, po administered as single dose measured daily for 14 days (reference value: 100%); assay type: organism-based; conditions: in vivo
[25] = AUC (0 to infinity) in Sprague-Dawley rat at 4 mg/kg, iv measured after 5 mins to 4 hrs post dose by LC-MS/MS method; assay type: ADME, organism-based; set-up: dose 4 mg/kg, time infinity, route intravenous; conditions: in vivo
[26] = tested on: Rattus norvegicus; test: Apparent volume of distribution during terminal phase in Sprague-Dawley rat at 4 mg/kg, iv measured after 5 mins to 4 hrs post dose by LC-MS/MS method; assay type: ADME, organism-based; conditions: in vivo
[27] = Oral bioavailability in Sprague-Dawley rat at 20 mg/kg measured after 5 mins to 4 hrs post dose by LC-MS/MS method; assay type: ADME, organism-based; conditions: in vivo
[28] = molecular target: Mast/stem cell growth factor receptor Kit (Homo sapiens, UniProt P10721); test: Inhibition of cKIT (unknown origin)
[29] = tested on: Mus musculus; test: Toxicity in human Caki1 cells xenografted nude mouse assessed as drug tolerance at 20 to 80 mg/kg, ig qd for 21 days; assay type: organism-based; conditions: in vivo, po, 504 h
[30] = Elimination half life in Sprague-Dawley rat at 20 mg/kg, po measured after 5 mins to 4 hrs post dose by LC-MS/MS method; assay type: ADME, organism-based; conditions: in vivo, read-out: beta t1/2 (converted)
[31] = Toxicity in KM mouse assessed as mouse survival at 420 mg/kg, po administered as single dose measured daily for 14 days (reference value: 100%); assay type: organism-based; conditions: in vivo
[32] = tested on: Mus musculus; test: Toxicity in KM mouse assessed as mouse mortality at 420 mg/kg, po administered as single dose measured daily for 14 days; assay type: organism-based; conditions: in vivo, 336 h
[33] = MRT (0 to t) in Sprague-Dawley rat at 4 mg/kg, iv measured after 5 mins to 4 hrs post dose by LC-MS/MS method; assay type: ADME, organism-based; conditions: in vivo
[34] = Toxicity in KM mouse assessed as mouse survival at 520 mg/kg, po administered as single dose measured daily for 14 days (reference value: 100%); assay type: organism-based; conditions: in vivo
[35] = tested on: CAKI-1; test: Antitumor activity in human Caki1 cells xenografted in nude mouse assessed as inhibition of tumor growth at 40 mg/kg, ig qd for 21 days; assay type: functional; conditions: CAKI-1, po, 504 h, read-out: TGI
[36] = molecular target: Epidermal growth factor receptor (Homo sapiens, UniProt P00533); test: Inhibition of EGFR (unknown origin)
[37] = Cmax in Sprague-Dawley rat at 4 mg/kg, iv measured after 5 mins to 4 hrs post dose by LC-MS/MS method; assay type: ADME, organism-based; set-up: dose 4 mg/kg, route intravenous; conditions: in vivo
[38] = Toxicity in KM mouse assessed as mouse survival at 620 mg/kg, po administered as single dose measured daily for 14 days (reference value: 100%); assay type: organism-based; conditions: in vivo
[39] = AUC (0 to t) in Sprague-Dawley rat at 20 mg/kg, po measured after 5 mins to 4 hrs post dose by LC-MS/MS method; assay type: ADME, organism-based; set-up: time 0.083-4 hr, dose 20 mg/kg, route oral; conditions: in vivo
[40] = Tmax in Sprague-Dawley rat at 20 mg/kg, po measured after 5 mins to 4 hrs post dose by LC-MS/MS method; assay type: ADME, organism-based; conditions: in vivo

Chain of Hepatocyte growth factor receptor (P08581 whole entry): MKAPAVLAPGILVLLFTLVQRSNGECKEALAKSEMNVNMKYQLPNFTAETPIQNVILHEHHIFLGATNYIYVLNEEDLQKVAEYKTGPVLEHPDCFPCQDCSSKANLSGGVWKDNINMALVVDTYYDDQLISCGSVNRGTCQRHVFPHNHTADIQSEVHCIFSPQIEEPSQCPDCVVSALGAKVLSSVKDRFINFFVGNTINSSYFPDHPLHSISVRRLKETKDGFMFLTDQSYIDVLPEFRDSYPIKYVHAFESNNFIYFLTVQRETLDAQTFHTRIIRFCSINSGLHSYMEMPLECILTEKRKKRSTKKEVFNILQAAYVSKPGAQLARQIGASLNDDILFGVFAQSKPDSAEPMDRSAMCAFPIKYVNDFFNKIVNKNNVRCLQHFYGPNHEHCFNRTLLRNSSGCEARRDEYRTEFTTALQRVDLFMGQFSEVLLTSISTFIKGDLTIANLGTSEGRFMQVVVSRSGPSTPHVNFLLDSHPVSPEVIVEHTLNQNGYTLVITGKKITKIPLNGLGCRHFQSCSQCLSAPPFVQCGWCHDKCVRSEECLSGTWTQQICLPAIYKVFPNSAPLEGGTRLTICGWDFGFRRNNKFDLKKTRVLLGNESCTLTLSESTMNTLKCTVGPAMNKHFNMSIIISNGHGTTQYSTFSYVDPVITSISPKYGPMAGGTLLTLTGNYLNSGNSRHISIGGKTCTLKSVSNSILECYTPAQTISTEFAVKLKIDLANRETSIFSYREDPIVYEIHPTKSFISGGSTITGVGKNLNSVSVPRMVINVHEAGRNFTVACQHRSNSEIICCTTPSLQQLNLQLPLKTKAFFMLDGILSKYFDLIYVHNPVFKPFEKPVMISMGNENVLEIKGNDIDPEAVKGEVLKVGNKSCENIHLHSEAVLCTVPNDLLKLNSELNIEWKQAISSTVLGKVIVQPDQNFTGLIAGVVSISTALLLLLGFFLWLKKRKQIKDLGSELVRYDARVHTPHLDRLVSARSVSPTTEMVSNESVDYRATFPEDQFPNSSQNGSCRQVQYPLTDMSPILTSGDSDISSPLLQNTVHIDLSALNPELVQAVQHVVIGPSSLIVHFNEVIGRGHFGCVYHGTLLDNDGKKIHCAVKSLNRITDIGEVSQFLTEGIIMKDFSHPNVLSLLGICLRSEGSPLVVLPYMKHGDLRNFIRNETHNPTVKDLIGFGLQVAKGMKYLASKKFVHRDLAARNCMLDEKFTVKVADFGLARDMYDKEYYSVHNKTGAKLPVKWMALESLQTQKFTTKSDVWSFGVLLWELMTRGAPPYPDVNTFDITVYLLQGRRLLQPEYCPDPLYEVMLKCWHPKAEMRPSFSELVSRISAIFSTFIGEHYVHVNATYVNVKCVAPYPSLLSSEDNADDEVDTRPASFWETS
Chain of Epidermal growth factor receptor (P00533 whole entry): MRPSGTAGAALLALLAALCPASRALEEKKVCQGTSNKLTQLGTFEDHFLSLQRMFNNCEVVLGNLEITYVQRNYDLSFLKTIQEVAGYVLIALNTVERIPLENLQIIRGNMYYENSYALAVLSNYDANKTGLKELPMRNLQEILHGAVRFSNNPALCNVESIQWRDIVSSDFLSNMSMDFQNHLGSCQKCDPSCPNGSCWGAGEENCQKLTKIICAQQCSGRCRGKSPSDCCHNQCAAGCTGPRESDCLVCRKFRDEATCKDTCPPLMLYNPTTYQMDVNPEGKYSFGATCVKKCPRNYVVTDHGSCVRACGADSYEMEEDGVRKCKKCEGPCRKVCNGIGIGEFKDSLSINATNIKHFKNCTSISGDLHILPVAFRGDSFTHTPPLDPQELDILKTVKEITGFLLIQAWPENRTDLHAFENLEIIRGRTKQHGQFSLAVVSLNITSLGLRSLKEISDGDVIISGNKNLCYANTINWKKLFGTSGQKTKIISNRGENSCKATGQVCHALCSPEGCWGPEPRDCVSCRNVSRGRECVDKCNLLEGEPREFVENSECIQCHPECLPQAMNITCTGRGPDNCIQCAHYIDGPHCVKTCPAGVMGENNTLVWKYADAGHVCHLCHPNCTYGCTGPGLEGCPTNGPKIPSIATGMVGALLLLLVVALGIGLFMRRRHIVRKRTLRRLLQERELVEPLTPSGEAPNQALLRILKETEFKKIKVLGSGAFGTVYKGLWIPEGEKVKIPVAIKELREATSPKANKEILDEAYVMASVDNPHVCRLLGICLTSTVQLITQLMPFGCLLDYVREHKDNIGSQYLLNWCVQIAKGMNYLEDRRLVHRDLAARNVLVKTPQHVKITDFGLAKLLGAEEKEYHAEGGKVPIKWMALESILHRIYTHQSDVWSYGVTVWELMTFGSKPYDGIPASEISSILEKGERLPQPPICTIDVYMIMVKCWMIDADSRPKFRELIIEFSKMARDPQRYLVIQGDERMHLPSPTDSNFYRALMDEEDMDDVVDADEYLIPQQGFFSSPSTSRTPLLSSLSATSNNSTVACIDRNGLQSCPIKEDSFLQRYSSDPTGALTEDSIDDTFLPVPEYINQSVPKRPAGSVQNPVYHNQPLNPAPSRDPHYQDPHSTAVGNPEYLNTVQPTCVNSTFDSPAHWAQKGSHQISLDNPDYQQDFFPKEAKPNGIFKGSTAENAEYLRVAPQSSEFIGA
Chain of Proto-oncogene tyrosine-protein kinase receptor Ret (P07949 whole entry): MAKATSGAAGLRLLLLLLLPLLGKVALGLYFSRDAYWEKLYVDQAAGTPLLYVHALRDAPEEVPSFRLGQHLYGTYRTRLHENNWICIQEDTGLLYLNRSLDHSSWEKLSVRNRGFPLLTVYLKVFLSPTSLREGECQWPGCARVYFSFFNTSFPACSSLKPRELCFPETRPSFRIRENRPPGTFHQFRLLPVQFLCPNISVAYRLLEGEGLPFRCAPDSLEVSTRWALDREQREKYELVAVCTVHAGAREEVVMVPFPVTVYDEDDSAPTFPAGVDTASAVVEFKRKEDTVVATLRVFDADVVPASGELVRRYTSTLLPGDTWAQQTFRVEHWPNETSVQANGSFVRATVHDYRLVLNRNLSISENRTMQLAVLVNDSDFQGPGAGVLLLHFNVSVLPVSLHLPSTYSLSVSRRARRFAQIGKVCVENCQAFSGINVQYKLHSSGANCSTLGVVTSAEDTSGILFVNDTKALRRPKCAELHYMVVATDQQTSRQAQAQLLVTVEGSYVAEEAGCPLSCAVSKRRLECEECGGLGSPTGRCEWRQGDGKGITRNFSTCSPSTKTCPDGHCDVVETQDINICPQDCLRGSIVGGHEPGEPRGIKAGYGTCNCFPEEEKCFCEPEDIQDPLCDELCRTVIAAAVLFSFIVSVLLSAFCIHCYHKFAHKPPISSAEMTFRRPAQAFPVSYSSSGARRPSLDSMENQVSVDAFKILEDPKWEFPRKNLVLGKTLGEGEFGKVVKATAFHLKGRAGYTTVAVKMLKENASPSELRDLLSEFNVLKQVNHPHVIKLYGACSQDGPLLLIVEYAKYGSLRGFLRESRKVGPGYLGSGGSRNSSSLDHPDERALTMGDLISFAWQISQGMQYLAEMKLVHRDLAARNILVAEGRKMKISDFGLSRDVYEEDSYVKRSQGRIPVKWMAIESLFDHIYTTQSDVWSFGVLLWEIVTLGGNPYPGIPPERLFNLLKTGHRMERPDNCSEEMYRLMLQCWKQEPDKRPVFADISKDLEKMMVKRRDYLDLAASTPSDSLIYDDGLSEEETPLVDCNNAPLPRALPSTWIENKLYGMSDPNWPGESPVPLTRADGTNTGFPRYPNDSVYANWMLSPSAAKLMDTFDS
Chain of Vascular endothelial growth factor receptor 2 (P35968 whole entry): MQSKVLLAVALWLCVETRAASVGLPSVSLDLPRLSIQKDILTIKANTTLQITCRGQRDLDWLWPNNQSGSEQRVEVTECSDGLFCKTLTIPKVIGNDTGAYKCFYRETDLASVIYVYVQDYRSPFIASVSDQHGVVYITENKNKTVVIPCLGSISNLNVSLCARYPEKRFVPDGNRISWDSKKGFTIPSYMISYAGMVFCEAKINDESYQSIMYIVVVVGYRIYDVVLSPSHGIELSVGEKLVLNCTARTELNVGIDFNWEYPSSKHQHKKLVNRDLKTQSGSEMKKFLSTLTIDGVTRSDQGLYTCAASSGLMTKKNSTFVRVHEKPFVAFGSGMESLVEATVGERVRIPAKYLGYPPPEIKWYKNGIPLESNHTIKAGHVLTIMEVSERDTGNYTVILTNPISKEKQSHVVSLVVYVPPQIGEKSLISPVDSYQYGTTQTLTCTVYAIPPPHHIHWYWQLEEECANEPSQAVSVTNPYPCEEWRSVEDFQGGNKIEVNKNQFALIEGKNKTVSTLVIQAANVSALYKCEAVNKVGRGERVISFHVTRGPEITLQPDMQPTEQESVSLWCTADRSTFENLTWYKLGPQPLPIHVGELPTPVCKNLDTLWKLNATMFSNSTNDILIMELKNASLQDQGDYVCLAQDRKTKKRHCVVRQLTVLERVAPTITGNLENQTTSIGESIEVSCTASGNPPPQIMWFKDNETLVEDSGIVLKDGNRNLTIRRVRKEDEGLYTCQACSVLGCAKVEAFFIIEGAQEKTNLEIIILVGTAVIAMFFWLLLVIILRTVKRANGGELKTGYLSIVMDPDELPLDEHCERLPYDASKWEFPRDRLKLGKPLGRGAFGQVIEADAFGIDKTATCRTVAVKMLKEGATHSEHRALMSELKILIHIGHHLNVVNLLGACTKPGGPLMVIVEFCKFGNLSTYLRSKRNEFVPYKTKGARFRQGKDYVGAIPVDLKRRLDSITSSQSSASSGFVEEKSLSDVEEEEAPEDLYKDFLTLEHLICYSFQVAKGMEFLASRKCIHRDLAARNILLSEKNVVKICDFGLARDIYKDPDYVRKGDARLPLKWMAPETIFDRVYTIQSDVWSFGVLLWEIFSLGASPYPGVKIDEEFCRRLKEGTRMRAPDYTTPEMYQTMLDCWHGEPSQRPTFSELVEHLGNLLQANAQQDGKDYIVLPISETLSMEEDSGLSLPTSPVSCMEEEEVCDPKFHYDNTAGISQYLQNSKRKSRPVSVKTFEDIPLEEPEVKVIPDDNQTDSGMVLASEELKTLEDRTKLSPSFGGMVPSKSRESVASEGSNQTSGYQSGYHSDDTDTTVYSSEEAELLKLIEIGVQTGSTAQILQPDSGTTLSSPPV

COc1cc2c(cc1OC)C(=O)Nc1c(ncnc1Oc1ccc(NC(=O)C3(C(=O)Nc4ccc(F)cc4)CC3)cc1)N2
IC50 [1]: > 1000 nM

Cc1nc(Oc2ccc(NC(=O)C3(C(=O)Nc4ccc(F)cc4)CC3)cc2)c2c(n1)Oc1ccccc1CN2
IC50 [1]: > 1000 nM

O=C(Nc1ccc(F)cc1)C1(C(=O)Nc2ccc(Oc3ncnc4c3N=Cc3ccccc3O4)cc2)CC1
IC50 [1]: > 1000 nM

Cc1nc(Oc2ccc(NC(=O)C3(C(=O)Nc4ccc(F)cc4)CC3)cc2)c2c(n1)Oc1ccccc1C=N2
IC50 [1]: > 1000 nM

COc1cc2c(cc1OC)Nc1ncnc(Oc3ccc(NC(=O)C4(C(=O)Nc5ccc(F)cc5)CC4)cc3)c1N(C)C2
IC50 [1]: > 1000 nM

COc1cc2c(cc1OC)Nc1ncnc(Oc3ccc(NC(=O)C4(C(=O)Nc5ccc(F)cc5)CC4)cc3)c1N=C2
IC50 [2]: 1420 nM | IC50 [3]: 1480 nM | IC50 [4]: 2070 nM | IC50 [5]: 2720 nM

COc1cc2c(cc1OC)Oc1ncnc(Oc3ccc(NC(=O)C4(C(=O)Nc5ccc(F)cc5)CC4)cc3)c1N=C2
IC50 [1]: > 1000 nM

COc1cc2c(cc1OC)Nc1nccc(Oc3ccc(NC(=O)C4(C(=O)Nc5ccc(F)cc5)CC4)cc3F)c1NC2
IC50 [1]: > 1000 nM

COc1cc2c(cc1OC)Nc1ncnc(Oc3ccc(NC(=O)C4(C(=O)Nc5ccc(F)cc5)CC4)cc3F)c1NC2
Vd/F [6]: 4.52 L/kg | survival at 336 h [7]: 80% | survival at 336 h [8]: 60% | IC50 [9]: 852 nM | Activity [10]: Non-Toxic | inhibition in vivo at 20 mg/kg [11]: 51.1% | half-life [12]: 0.91 h | CL/F [13]: 48.8 mL/min/kg | inhibition in vivo at 80 mg/kg [14]: 64.5% | Cmax [15]: 1930 ng/mL | Activity [16]: Non-Toxic | CLz/F [17]: 19 mL/min/kg | IC50 [18]: 62.5 nM | IC50 [19]: > 40000 nM | AUC(0-inf) [20]: 7080 ng·h/mL | MRT last [21]: 2.36 h | AUC(0-t) [22]: 3590 ng·h/mL | IC50 [1]: 24.4 nM | IC50 [23]: 163 nM | IC50 [2]: 4100 nM | survival at 336 h [24]: 40% | AUC(0-inf) [25]: 3590 ng·h/mL | IC50 [3]: 748 nM | Vz/F [26]: 1.48 L/kg | bioavailability [27]: 39% | IC50 [28]: 259 nM | Activity [29]: Non-Toxic | half-life [30]: 1.09 h | survival at 336 h [31]: 100% | Activity [32]: Non-Toxic | IC50 [4]: 2950 nM | MRT last [33]: 1 h | survival at 336 h [34]: 100% | inhibition in vivo at 40 mg/kg [35]: 58.9% | IC50 [36]: 268 nM | Cmax [37]: 4660 ng/mL | survival at 336 h [38]: 100% | AUC(0-t) [39]: 6990 ng·h/mL | IC50 [5]: 1860 nM | Tmax [40]: 1.67 h

COc1cc2c(cc1OC)C(=O)Nc1c(Oc3ccc(NC(=O)C4(C(=O)Nc5ccc(F)cc5)CC4)cc3)ccnc1N2
IC50 [1]: > 1000 nM
